The values that follow come from ChEMBL document CHEMBL1124385, “A new series of tricyclic (aryloximino)propanolamines displaying very high selective beta 2-blocking properties” (J Med Chem, 1989).

Experiment [1] addresses Beta-2 adrenergic receptor (Cavia porcellus, UniProt Q8K4Z4). As to the kind of experiment: Beta-2 adrenergic receptor blocking was assessed from 50% inhibition of the isoproterenol submaximal response on isolated Guinea pig trachea(IT).
Experiment [2] has as its target Beta-1 adrenergic receptor (Cavia porcellus, UniProt B0FL73). Kind of experiment: Beta-1 adrenergic receptor blocking was assessed from 50% inhibition of the isoproterenol submaximal response on isolated Guinea pig atria(IA).
A short description of experiment [3]: Selectivity, ratio of IC50 on guinea pig atria and guinea pig trachea.

Structures are written as SMILES. Where only a bound is given, the exact number is not on record here.

Chain of Beta-2 adrenergic receptor (Q8K4Z4 whole entry): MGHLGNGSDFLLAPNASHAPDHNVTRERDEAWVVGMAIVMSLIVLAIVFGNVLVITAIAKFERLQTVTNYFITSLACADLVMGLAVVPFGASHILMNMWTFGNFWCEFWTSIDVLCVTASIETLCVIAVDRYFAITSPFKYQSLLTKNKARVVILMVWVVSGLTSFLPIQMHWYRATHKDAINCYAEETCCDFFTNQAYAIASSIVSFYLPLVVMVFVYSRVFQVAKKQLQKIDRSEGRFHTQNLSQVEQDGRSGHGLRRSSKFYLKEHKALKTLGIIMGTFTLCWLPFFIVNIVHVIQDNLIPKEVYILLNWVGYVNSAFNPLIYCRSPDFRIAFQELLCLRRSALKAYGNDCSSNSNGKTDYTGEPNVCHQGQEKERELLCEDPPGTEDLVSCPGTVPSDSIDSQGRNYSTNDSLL
Chain of Beta-1 adrenergic receptor (B0FL73 whole entry): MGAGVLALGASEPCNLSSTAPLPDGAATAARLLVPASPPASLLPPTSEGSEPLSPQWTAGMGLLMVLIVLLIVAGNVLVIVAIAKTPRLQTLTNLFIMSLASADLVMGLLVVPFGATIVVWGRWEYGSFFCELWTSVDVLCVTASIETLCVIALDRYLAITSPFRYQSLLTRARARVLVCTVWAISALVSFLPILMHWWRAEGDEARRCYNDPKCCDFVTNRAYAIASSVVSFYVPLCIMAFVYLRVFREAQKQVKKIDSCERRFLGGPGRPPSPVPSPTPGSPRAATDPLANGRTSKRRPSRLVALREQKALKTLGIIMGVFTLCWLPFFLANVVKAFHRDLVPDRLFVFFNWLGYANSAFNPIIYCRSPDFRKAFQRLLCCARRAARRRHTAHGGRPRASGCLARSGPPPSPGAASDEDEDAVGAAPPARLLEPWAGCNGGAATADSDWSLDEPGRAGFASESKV

`CC(C)(C)NCC(O)CO/N=C1/c2ccccc2C2CCCCCC12O` (stereo unspecified): the 50% inhibitory concentration (IC50) (usually the midpoint of a concentration-inhibition curve) worked out at 0.44 µM in experiment [1] and 0.34 µM in experiment [2].

For `COC12CCCCCCCCCC1c1ccccc1/C2=N/OCC(O)CNC(C)C` (stereo unspecified), the half-maximal inhibitory concentration (IC50) in experiment [1] and in experiment [2] was above 10 µM throughout.

As to `COC12CCCCC1c1ccc(F)cc1/C2=N/OCC(O)CNC(C)(C)C` (stereo unspecified), the values for the half-maximal inhibitory concentration (IC50) in experiment [1] and in experiment [2] were 0.45 µM and 0.83 µM, respectively.

In the case of `COC12CCCCCC1c1ccccc1/C2=N/OCC(O)CNC(C)C` (stereo unspecified), the IC50 in experiment [1] worked out at 0.035 µM; in experiment [2], 3 µM.

Take `COC12CCCCC1c1ccccc1/C2=N/OCC(O)CNC(C)C` (stereo unspecified): the half-inhibitory concentration (IC50) in experiment [1] was found to be 0.3 µM; in experiment [2], 1.2 µM.

For `COc1cc(CCNCC(O)CO/N=C2/c3ccccc3C3CCCCC23OC)cc(OC)c1` (stereo unspecified), the IC50 in experiment [1] and in experiment [2] was above 10 µM throughout.

With `CC(C)(C)NCC(O)CO/N=C1/c2ccccc2C2CCCCCC12OCCO` (stereo unspecified), the IC50 in experiment [1] is 7.9 µM; in experiment [2] it was above 1 µM.

As to `COc1cc(CCNCC(O)CO/N=C2/c3ccccc3C3CCCCCCCCCC23OC)cc(OC)c1` (stereo unspecified), the half-inhibitory concentration (IC50) in experiment [1] and in experiment [2] was above 10 µM in each case.

In the case of `CC(C)(C)NCC(O)CO/N=C1/c2ccccc2C2CCCCC12OCCO` (stereo unspecified), the Ratio in experiment [3] is 0.28. Further, the results for the IC50 in experiment [1] and in experiment [2] were 3.1 µM and 0.85 µM, respectively.

On to `CC(C)NCC(O)CO/N=C1/c2ccccc2C2CCCCC12OCCO` (stereo unspecified), for which the 50% inhibitory concentration (IC50) in experiment [1] and in experiment [2] was above 10 µM each time.

Take `COc1cc(CCNCC(O)CO/N=C2/c3cc(F)ccc3C3CCCCC23OC)cc(OC)c1` (stereo unspecified): the IC50 in experiment [1] and in experiment [2] was above 10 µM each time.

Regarding `CC(C)NCC(O)CO/N=C1/c2ccccc2C2CCCCCC12O` (stereo unspecified), the half-inhibitory concentration (IC50) in experiment [1] was above 10 µM; in experiment [2], 0.89 µM.

Turning to `CC(C)(C)NCC(O)CO/N=C1/c2ccccc2C2CCCCC12O` (stereo unspecified), the Ratio in experiment [3] was determined as 0.09. The half-maximal inhibitory concentration (IC50) in experiment [1] came out at 31 µM; in experiment [2], 2.8 µM.

As to `COC12CCCCC1c1ccc(F)cc1/C2=N/OCC(O)CNC(C)C` (stereo unspecified), the figures for the 50% inhibitory concentration (IC50) in experiment [1] and in experiment [2] were 0.79 µM and 19 µM, respectively.

Take `CC(C)NCC(O)CO/N=C1/c2ccccc2C2CCCCCC12OCCO` (stereo unspecified): the half-inhibitory concentration (IC50) in experiment [1] and in experiment [2] was above 10 µM each time.

As for `COc1cc(CCNCC(O)CO/N=C2/c3ccccc3C3CCCCCC23OC)cc(OC)c1` (stereo unspecified), the figures for the IC50 in experiment [1] and in experiment [2] were above 10 µM and 13 µM, respectively.

Consider `CC(C)NCC(O)CO/N=C1/c2ccccc2C2CCCCC12O` (stereo unspecified), for which the 50% inhibitory concentration (IC50) in experiment [1] and in experiment [2] was above 10 µM in each case.

As for `COC12CCCCCC1c1ccccc1/C2=N/OCC(O)CNC(C)(C)C` (stereo unspecified), the concentration for half-maximal inhibition (IC50) was found to be 0.44 µM in experiment [1] and 0.16 µM in experiment [2].

In the case of `COC12CCCCC1c1ccccc1/C2=N/OCC(O)CNC(C)(C)C` (stereo unspecified), the Ratio in experiment [3] was 33. In addition, the IC50 in experiment [1] was 0.035 µM; in experiment [2] it was 12 µM.
